The experiment deals with T1, ZENC (Neurospora crassa, UniProt Q1K8M1).
T1 construct: gene NCU05345; codon-optimised full gene (888 bp; 295 residues in abstract, 296 in results) fused to alpha-factor signal peptide in pPIC9K; secreted from Pichia pastoris GS115, HiTrap Q purified; about 29 kDa by SDS-PAGE; proposed catalytic triad Ser117, Asp141, His274
Description: HPLC with fluorescence detection of remaining substrate; nonlinear Hill fit with n = […]. In kind it is biochemical. The following applies: 50 mM Tris-HCl pH 8.0, 45 °C, 3 min; substrate range printed as 2 to 220 mM.

This is an account of results in publication PMC6301899, “Characterization, expression and application of a zearalenone degrading enzyme from Neurospora crassa” (AMB Express, 2018).

T1 sequence (Q1K8M1 entry or part of it): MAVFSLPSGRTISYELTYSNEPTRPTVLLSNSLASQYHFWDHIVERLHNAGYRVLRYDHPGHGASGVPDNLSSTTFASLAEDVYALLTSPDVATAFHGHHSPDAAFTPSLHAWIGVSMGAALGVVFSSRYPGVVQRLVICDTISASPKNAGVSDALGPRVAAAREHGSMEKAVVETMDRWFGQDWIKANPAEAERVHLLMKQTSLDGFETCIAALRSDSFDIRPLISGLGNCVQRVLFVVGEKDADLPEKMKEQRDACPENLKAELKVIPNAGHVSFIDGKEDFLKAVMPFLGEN

Broadly, the Km is the concentration of substrate that gives half-maximal velocity. For `C[C@H]1CCCC(=O)CCC/C=C/c2cc(O)cc(O)c2C(=O)O1` [zearalenone], the Km came to 38.6 ± 5.87 µM.
